Legend:
[1] = Solubility in cyclohexane (Table 2); type: physicochemical; settings: for Solubility: cyclohexane
[2] = Solubility in water-insoluble recrystallization solvents (statement); type: physicochemical; settings: water-insoluble solvent other than alicyclic or aliphatic hydrocarbons; in words

Row | Structure (SMILES) | Solubility ([1]; 20 °C) [g/100 g cyclohexane] | Solubility ([1]; 30 °C) [g/100 g cyclohexane] | Solubility ([1]; 40 °C) [g/100 g cyclohexane] | Solubility ([1]; 50 °C) [g/100 g cyclohexane] | Solubility ([1]; 55 °C) [g/100 g cyclohexane] | Solubility ([1]; 60 °C) [g/100 g cyclohexane] | solubility compared with αβ-crystals ([1]; in words, refers to Table 2) | solubility of the αβ-crystals in water-insoluble solvent [2]
1 | Cc1cc(CCC(=O)OCC(C)(C)C2OCC3(CO2)COC(C(C)(C)COC(=O)CCc2cc(C)c(O)c(C(C)(C)C)c2)OC3)cc(C(C)(C)C)c1O (centres unmarked) [δ-Crystal, 3,9-bis{2-[3-(3-tert-butyl-4-hydroxy-5-methylphenyl)propionyloxy]-1,1-dimethylethyl}-2,4,8,10-tetraoxaspiro[5.5]undecane] | 0.06 | 0.1 | 0.2 | 0.5 | 1.1 | 2.1 | lower solubility than that of the αβ-crystals | 
2 | Cc1cc(CCC(=O)OCC(C)(C)C2OCC3(CO2)COC(C(C)(C)COC(=O)CCc2cc(C)c(O)c(C(C)(C)C)c2)OC3)cc(C(C)(C)C)c1O (stereo not drawn) [α.eta.-Crystal, 3,9-bis{2-[3-(3-tert-butyl-4-hydroxy-5-methylphenyl)propionyloxy]-1,1-dimethylethyl}-2,4,8,10-tetraoxaspiro[5.5]undecane] | 0.2 | 0.5 | 1.4 | 4.1 | 8.5 | > 60 |  | so high that the δ-crystals containing substantially no αβ-crystals can be obtained even at room temperature
